Assay results: patent US9301923B2, “Lipids, lipid compositions, and methods of using them” (NOVARTIS AG, priority 2009, dated 2016)
“And” between values parts separate entries of the source, which are not always exact repeats. Equal entries are not always repeated. Where two headings read alike, the source gives them in different places.

Columns and labels:
[1] = pKa of the lipid by TNS fluorescence; assay type: physicochemical
Outline: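 Lipid dissolved in ethanol (2 mM stock) and measured with TNS across eight buffers of differing pH, in water at standard temperature and pressure. Normalized fluorescence intensity plotted against pH and points joined by a smooth line to derive pKa, precise to about 0.2 units.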

[2] = Particle size and PDI by dynamic light scattering (Malvern Zetasizer); assay type: physicochemical; parameters: Final size: unit not given here; details: for Final size: LNP formulation, Table 10
Outline: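 Nanoparticles diluted in PBS to a count rate of about 200-400 kcts and measured by dynamic light scattering; size given as intensity-weighted average diameter, with polydispersity index from the same measurement.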

Factor VII = Factor VII activity assay, in vivo liver delivery of FVII siRNA LNP; parameters: species or system mouse; details: for FVII inhib %: ~48 h
Outline: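 Female CD-1 mice (~25 g) given a single i.v. tail-vein dose of FVII siRNA in LNPs (cationic, stealth, neutral lipids), dosed as mg siRNA/kg. Plasma collected ~48 h post-injection; FVII activity read against a standard curve from pooled vehicle-control plasma.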

[3] = tested on: PLK-1 mRNA in Hep3B tumors; assay: Hep3B tumor study, PLK-1 mRNA KD in tumor tissue; assay type: in vivo, human; details: for PLK1 inhibition %: Hep3B tumor, mouse, i.v., LNP composition as in the source; for % KD: formulation containing E0011 and S004
Description: Formulated siRNAs are made up of double stranded siRNA sequences specific to a target mRNA sequence, and are in the form of lipid nucleotid particles (LNPs) containing cationic lipids, stealth lipids and neutral lipids, as provided in the Examples below. The siRNA construct for use in targeting the liver is specific to Factor VII. The siRNA construct for use in targeting tumors is specific to PLK1-424, which is published by Judge et al., See, J Clin Invest. 2009 March; 119(3):661-73; doi: 10.1172/JCI37515). • 1. FVII siRNA duplex sequence
Hep3B tumors are established in female nude mice by sc injection of 7×10^6 cells in 100 ul PBS into the left flank. Mice are randomized into treatment groups 10-14 days after seeding as tumors reached an average size of 100 mm^3. siRNA formulated LNP formulations are administered at various dose levels intravenously via the lateral tail vein calculated on a mg siRNAs/kg basis according to individual animal weights (10 ml/kg injection volume). Mice are euthanized by CO2 inhalation at various time points and the tumors are harvested for mRNA quantitation. Lipids with a wide range of pKa (5.3-6.6) are used in the LNP formulations. Tumors are measured in 2 dimensions (width×length) to assess tumor growth using digital calipers. Tumor volume is calculated using the equation [a×b×b/2], where a equals the largest diameter and b equals the smallest diameter.
About 30-50 mg tumor tissue is homogenized in tissue lysis buffer in a Qiagen homogenizer followed by centrifugation to clarify lysates. Total RNA is isolated using RNeasy isolation kit (catalog number 74106) according to the manufacture's protocol. PLK-1 mRNA is analyzed by quantitative PCR and normalized to human GAPDH. Applied Biosystems human PLK-1 gene expression assay Hs00983229_m1 and human GAPDH endogenous control cat number 4326317E are used for mRNA detection.
The pKa in all tables refers to the pKa of the cationic lipid. Where multiple doses are indicated (e.g., 3×5), the first number indicates the number of doses given and the second number indicates the amount per dose in mg siRNA (biologically active agent) per kg mouse. In general the multiple doses are administered at 24 hour intervals, and tissues for mRNA quantitation are harvested 24 hours after the last dose.

[4] = LNP formulation with PLK1 siRNA, helper, neutral and stealth lipid, molar ratio and N/P as in the table, stealth lipid S011, molar ratio 60/38/2, N/P 4
[5] = lipid/DSPC/CHOL/AVANTI 880150P 50/28/18/4, N/P 3.43
[6] = lipid/no neutral lipid/CHOL/AVANTI 880150P 50/0/46/4, N/P 3.43
[7] = dose 3 mg/kg siRNA i.v., lipid/DSPC/CHOL/AVANTI 880150P 50/28/18/4, N/P 3.43
[8] = dose 3 mg/kg siRNA i.v., lipid/no neutral lipid/CHOL/AVANTI 880150P 50/0/46/4, N/P 3.43
[9] = LNP formulation with PLK1 siRNA, helper, neutral and stealth lipid, molar ratio and N/P as in the table
[10] = lipid/no neutral lipid/CHOL/GM-020 NOF 60/0/34/6, N/P 3
[11] = lipid/no neutral lipid/CHOL/GM-020 NOF 60/0/36/4, N/P 3
[12] = lipid/no neutral lipid/CHOL/GM-020 NOF 60/0/38/2, N/P 3
[13] = dose 1 mg/kg siRNA i.v., lipid/DSPC/CHOL/AVANTI 880150P 50/28/18/4, N/P 3.43
[14] = lipid/no neutral lipid/CHOL/S006 60/0/37/3, N/P 3
[15] = lipid/no neutral lipid/CHOL/S010 60/0/37/3, N/P 3

| SMILES | pKa ([1]; pKa) | Final size (nm) [2, 5] | PDI [2, 5] | Final size (nm) [2, 6] | PDI [2, 6] | FVII inhib % (Factor VII; [7]) | FVII inhib % (Factor VII; [8]) | PLK1 inhibition % ([3]; 1 × 1 mg siRNA/kg) | Final size (nm) [2, 9] | other results |
| --- | --- | --- | --- | --- | --- | --- | --- | --- | --- | --- |
| CCCCC/C=C\C/C=C\CCCCCCCCOCC(CN1CCC(C)CC1)OCCOCCO[C@H]1CC[C@@]2(C)C(=CC[C@H]3[C@@H]4CC[C@H]([C@H](C)CCCC(C)C)[C@@]4(C)CC[C@@H]32)C1 (stereo partly shown) [E0008] | 5.81 | 85 nm | 0.168 | 84 nm | 0.214 | 73% | 84.5% | 38% | – | Final size (nm) ([2]; LNP formulation with PLK1 siRNA, helper, neutral and stealth lipid, molar ratio and N/P as in the table, stealth lipid S004, molar ratio 60/38/2, N/P 4): 123.1 nm; Final size (nm) [2, 4]: 93.11 nm; PLK1 inhibition % ([3]; 1 × 5 mg siRNA/kg): 85% |
| CCCCC/C=C\C/C=C\CCCCCCCCOCC(CN1CCOCC1)OCCOCCO[C@H]1CC[C@@]2(C)C(=CC[C@H]3[C@@H]4CC[C@H]([C@H](C)CCCC(C)C)[C@@]4(C)CC[C@@H]32)C1 (stereo partly shown) [E0011] | 5.32 | 111 nm | 0.221 | 108 nm | 0.23 | 86.5% | 92.3% | – | – | Final size ([2]; stealth lipid S018): 113.2; Final size ([2]; stealth lipid S019): 110; Final size ([2]; stealth lipid S020): 74.42; PLK1 inhibition % ([3]; 1 × 5 mg siRNA/kg): 66%; PLK1 inhibition % ([3]; 3 × 10 mg siRNA/kg): 71%; % KD ([3]; Table 9, 1×10 mg/kg siRNA): 70%; % KD ([3]; Table 9, 3×5 mg/kg siRNA): 67% |
| CCCCC/C=C\C/C=C\CCCCCCCCOCC(CN1CCCCC1)OCCOCCO[C@H]1CC[C@@]2(C)C(=CCC3C2CC[C@@]2(C)C3CC[C@@H]2[C@H](C)CCCC(C)C)C1 (stereo partly shown) [E0014] | 6.4 | 104 nm and 95 nm | 0.151 and 0.148 | 148 nm | 0.05 | – | 97.4% | – | 82.21 nm | pKa [1]: 6.4; Final size (nm) [2, 10]: 85.8 nm; PDI [2, 10]: 0.106; Final size (nm) [2, 11]: 101.5 nm and 94.6 nm; PDI [2, 11]: 0.182 and 0.092; Final size (nm) [2, 12]: 141 nm; PDI [2, 12]: 0.122; FVII inhib % (Factor VII; [13]): 72.1%; FVII inhib % (Factor VII; dose 1 mg/kg siRNA i.v., lipid/no neutral lipid/CHOL/GM-020 NOF 60/0/34/6, N/P 3): 25%; FVII inhib % (Factor VII; dose 1 mg/kg siRNA i.v., lipid/no neutral lipid/CHOL/GM-020 NOF 60/0/36/4, N/P 3, 1 mg/kg): 68.5% and 37.6%; FVII inhib % (Factor VII; dose 1 mg/kg siRNA i.v., lipid/no neutral lipid/CHOL/GM-020 NOF 60/0/38/2, N/P 3): 71.5%; FVII inhib % (Factor VII; dose 3 mg/kg siRNA i.v., lipid/DSPC/CHOL/AVANTI 880150P 50/28/18/4, N/P 3.43, 3 mg/kg): 98.6% and 95.8%; FVII inhib % (Factor VII; dose 3 mg/kg siRNA i.v., lipid/no neutral lipid/CHOL/GM-020 NOF 60/0/34/6, N/P 3): 96.6%; FVII inhib % (Factor VII; dose 3 mg/kg siRNA i.v., lipid/no neutral lipid/CHOL/GM-020 NOF 60/0/36/4, N/P 3): 94%; FVII inhib % (Factor VII; dose 3 mg/kg siRNA i.v., lipid/no neutral lipid/CHOL/GM-020 NOF 60/0/38/2, N/P 3): 96.2%; in vivo Factor VII inhibition (Factor VII; formulation containing the cationic lipid, RNAi construct specific to Factor VII, liver): 97.4%; PLK1 inhibition % ([3]; 1 × 10 mg siRNA/kg): 22% |
| CCCCC/C=C\C/C=C\CCCCCCCCOCC(CN1CCC(OC)C1)OCCOCCO[C@H]1CC[C@@]2(C)C(=CC[C@H]3[C@@H]4CC[C@H]([C@H](C)CCCC(C)C)[C@@]4(C)CC[C@@H]32)C1 (stereo partly shown) [E0024] | 6.62 | 100 nm | 0.148 | 149 nm and 125 nm | 0.092 and 0.08 | 99.9% | 99.5% | – | – | Final size (nm) ([2]; LNP formulation with PLK1 siRNA, helper, neutral and stealth lipid, molar ratio and N/P as in the table, stealth lipid S004, molar ratio 60/38/0/2, N/P 3): 120.6 nm; Final size (nm) ([2]; LNP formulation with PLK1 siRNA, helper, neutral and stealth lipid, molar ratio and N/P as in the table, stealth lipid S011, molar ratio 40/48/10/2, N/P 3): 88.46 nm; Final size (nm) [2, 14]: 98.53 nm; PDI [2, 14]: 0.12; Final size (nm) [2, 15]: 96.09 nm; PDI [2, 15]: 0.137; FVII inhib % (Factor VII; [13]): 85.3%; FVII inhib % (Factor VII; dose 1 mg/kg siRNA i.v., lipid/no neutral lipid/CHOL/AVANTI 880150P 50/0/46/4, N/P 3.43): 95.7%; FVII inhib % (Factor VII; dose 1 mg/kg siRNA i.v., lipid/no neutral lipid/CHOL/S006 60/0/37/3, N/P 3): 83.8%; FVII inhib % (Factor VII; dose 1 mg/kg siRNA i.v., lipid/no neutral lipid/CHOL/S010 60/0/37/3, N/P 3): 72.2%; PLK1 inhibition % ([3]; 1 × 10 mg siRNA/kg): 15%; PLK1 inhibition % ([3]; 4 × 5 mg siRNA/kg): 23% |
| CCCCC/C=C\C/C=C\CCCCCCCCOCC(CN1CCC(CCC)C1)OCCOCCO[C@H]1CC[C@@]2(C)C(=CCC3C2CC[C@@]2(C)C3CC[C@@H]2[C@H](C)CCCC(C)C)C1 (stereo partly shown) [E0025] | 5.45 | 97 nm | 0.22 | 73 nm | 0.12 | 63% | 94.2% | 27% | – | Final size (nm) ([2]; LNP formulation with PLK1 siRNA, helper, neutral and stealth lipid, molar ratio and N/P as in the table, stealth lipid S004, molar ratio 45/43/10/2, N/P 4): 118.8 nm; Final size (nm) ([2]; LNP formulation with PLK1 siRNA, helper, neutral and stealth lipid, molar ratio and N/P as in the table, stealth lipid S011, molar ratio 40/48/10/2, N/P 4): 85.63 nm; Final size (nm) [2, 4]: 95.73 nm |
| CCCCC/C=C\C/C=C\CCCCCCCCOCC(CN1CCC(O)C1)OCCOCCO[C@H]1CC[C@@]2(C)C(=CC[C@H]3[C@@H]4CC[C@H]([C@H](C)CCCC(C)C)[C@@]4(C)CC[C@@H]32)C1 (stereo partly shown) [E0045] | 4.73 | 100 nm | 0.18 | 103 nm | 0.25 | 10.4% | 90.7% | 36% | 103.2 nm | – |
| CCCCCCCC/C=C\CCCCCCCCOCC(CN1CCOCC1)OCCOCC(=O)OC1CC[C@@]2(C)C(=CCC3C2CC[C@@]2(C)C3CC[C@@H]2[C@H](C)CCCC(C)C)C1 (stereo partly shown) [E0167] | 5.21 | – | – | – | – | – | – | 23% | 86.57 nm | – |
| CCCCC/C=C\C/C=C\CCCCCCCCOCC(CN1CCCCC1)OCCCOC(=O)CCC(=O)O[C@H]1CC[C@@]2(C)C(=CC[C@H]3[C@@H]4CC[C@H]([C@H](C)CCCC(C)C)[C@@]4(C)CC[C@@H]32)C1 (stereo partly shown) [E0179] | 5.95 | – | – | – | – | – | – | 53% | 114.6 nm | – |
